Experimental data reported in article PMC12670405, “Second-Generation AURKA-Targeting PROTACs: Structural Optimization toward in Vivo Degradation in Neuroblastoma” (Journal of Medicinal Chemistry, 2025).

What was measured:
Experiment in all cases: KINOMEscan scanMAX
Assay type in all cases: binding
Conditions in all cases: read-out: Percent Control
EPHB2 = target: T1, EPHB2 (Homo sapiens, UniProt P29323)
T1 construct: purchased Eurofins Discovery (DiscoverX KINOMEscan scanMAX)
Method: (§1) The kinome-wide binding assay was performed by Eurofins Discovery using the scanMAX screening platform. More information can be found on the Eurofins Discovery Web site.

CDK9 = target: T2, CDK9 (Homo sapiens, UniProt P50750)
T2 construct: purchased Eurofins Discovery (DiscoverX KINOMEscan scanMAX)
Method: as §1

LZK = target: T3, LZK (Homo sapiens, UniProt O43283)
T3 construct: purchased Eurofins Discovery (DiscoverX KINOMEscan scanMAX)
Method: as §1

MEK4 = target: T4, MEK4 (Homo sapiens, UniProt P45985)
T4 construct: purchased Eurofins Discovery (DiscoverX KINOMEscan scanMAX)
Method: as §1

MAPKAPK5 = target: T5, MAPKAPK5 (Homo sapiens, UniProt Q8IW41)
T5 construct: purchased Eurofins Discovery (DiscoverX KINOMEscan scanMAX)
Method: as §1

TYRO3 = target: T6, TYRO3 (Homo sapiens, UniProt Q06418)
T6 construct: purchased Eurofins Discovery (DiscoverX KINOMEscan scanMAX)
Method: as §1

ALK = target: T7, ALK (Homo sapiens, UniProt Q9UM73)
T7 construct: purchased Eurofins Discovery (DiscoverX KINOMEscan scanMAX)
Method: as §1

NLK = target: T8, NLK (Homo sapiens, UniProt Q9UBE8)
T8 construct: purchased Eurofins Discovery (DiscoverX KINOMEscan scanMAX)
Method: as §1

SRPK3 = target: T9, SRPK3 (Homo sapiens, UniProt Q9UPE1)
T9 construct: purchased Eurofins Discovery (DiscoverX KINOMEscan scanMAX)
Method: as §1

DYRK1A = target: T10, DYRK1A (Homo sapiens, UniProt Q13627)
T10 construct: purchased Eurofins Discovery (DiscoverX KINOMEscan scanMAX)
Method: as §1

CDKL2 = target: T11, CDKL2 (Homo sapiens, UniProt Q92772)
T11 construct: purchased Eurofins Discovery (DiscoverX KINOMEscan scanMAX)
Method: as §1

PRKD1 = target: T12, PRKD1 (Homo sapiens, UniProt Q15139)
T12 construct: purchased Eurofins Discovery (DiscoverX KINOMEscan scanMAX)
Method: as §1

NEK11 = target: T13, NEK11 (Homo sapiens, UniProt Q8NG66)
T13 construct: purchased Eurofins Discovery (DiscoverX KINOMEscan scanMAX)
Method: as §1

GAK = target: T14, GAK (Homo sapiens, UniProt O14976)
T14 construct: purchased Eurofins Discovery (DiscoverX KINOMEscan scanMAX)
Method: as §1

MAP3K15 = target: T15, MAP3K15 (Homo sapiens, UniProt Q6ZN16)
T15 construct: purchased Eurofins Discovery (DiscoverX KINOMEscan scanMAX)
Method: as §1

LTK = target: T16, LTK (Homo sapiens, UniProt P29376)
T16 construct: purchased Eurofins Discovery (DiscoverX KINOMEscan scanMAX)
Method: as §1

CAMK1 = target: T17, CAMK1 (Homo sapiens, UniProt Q14012)
T17 construct: purchased Eurofins Discovery (DiscoverX KINOMEscan scanMAX)
Method: as §1

EGFR(T790M) = target: T18, EGFR(T790M) (Homo sapiens, UniProt P00533, T790M)
T18 construct: purchased Eurofins Discovery (DiscoverX KINOMEscan scanMAX)
Method: as §1

CLK1 = target: T19, CLK1 (Homo sapiens, UniProt P49759)
T19 construct: purchased Eurofins Discovery (DiscoverX KINOMEscan scanMAX)
Method: as §1

RIPK5 = target: T20, RIPK5 (Homo sapiens, UniProt Q6XUX3)
T20 construct: purchased Eurofins Discovery (DiscoverX KINOMEscan scanMAX)
Method: as §1

TAK1 = target: T21, TAK1 (Homo sapiens, UniProt O43318)
T21 construct: purchased Eurofins Discovery (DiscoverX KINOMEscan scanMAX)
Method: as §1

NDR2 = target: T22, NDR2 (Homo sapiens, UniProt Q9Y2H1)
T22 construct: purchased Eurofins Discovery (DiscoverX KINOMEscan scanMAX)
Method: as §1

AKT3 = target: T23, AKT3 (Homo sapiens, UniProt Q9Y243)
T23 construct: purchased Eurofins Discovery (DiscoverX KINOMEscan scanMAX)
Method: as §1

[1] = target: T24, ABL1(E255K)-phosphorylated (Homo sapiens, UniProt P00519, E255K)
T24 construct: purchased Eurofins Discovery (DiscoverX KINOMEscan scanMAX)
Method: as §1

ASK2 = target: T25, ASK2 (Homo sapiens, UniProt O95382)
T25 construct: purchased Eurofins Discovery (DiscoverX KINOMEscan scanMAX)
Method: as §1

CLK4 = target: T26, CLK4 (Homo sapiens, UniProt Q9HAZ1)
T26 construct: purchased Eurofins Discovery (DiscoverX KINOMEscan scanMAX)
Method: as §1

CSNK1D = target: T27, CSNK1D (Homo sapiens, UniProt P48730)
T27 construct: purchased Eurofins Discovery (DiscoverX KINOMEscan scanMAX)
Method: as §1

LCK = target: T28, LCK (Homo sapiens, UniProt P06239)
T28 construct: purchased Eurofins Discovery (DiscoverX KINOMEscan scanMAX)
Method: as §1

[2] = target: T29, JAK1(JH1domain-catalytic) (Homo sapiens, UniProt P23458)
T29 construct: JAK1(JH1domain-catalytic); purchased Eurofins Discovery (DiscoverX KINOMEscan scanMAX)
Method: as §1

TSSK3 = target: T30, TSSK3 (Homo sapiens, UniProt Q96PN8)
T30 construct: purchased Eurofins Discovery (DiscoverX KINOMEscan scanMAX)
Method: as §1

PLK4 = target: T31, PLK4 (Homo sapiens, UniProt O00444)
T31 construct: purchased Eurofins Discovery (DiscoverX KINOMEscan scanMAX)
Method: as §1

PRKCD = target: T32, PRKCD (Homo sapiens, UniProt Q05655)
T32 construct: purchased Eurofins Discovery (DiscoverX KINOMEscan scanMAX)
Method: as §1

MEK2 = target: T33, MEK2 (Homo sapiens, UniProt P36507)
T33 construct: purchased Eurofins Discovery (DiscoverX KINOMEscan scanMAX)
Method: as §1

MAP4K3 = target: T34, MAP4K3 (Homo sapiens, UniProt Q8IVH8)
T34 construct: purchased Eurofins Discovery (DiscoverX KINOMEscan scanMAX)
Method: as §1

T18 sequence (P00533 25-1210 T790M): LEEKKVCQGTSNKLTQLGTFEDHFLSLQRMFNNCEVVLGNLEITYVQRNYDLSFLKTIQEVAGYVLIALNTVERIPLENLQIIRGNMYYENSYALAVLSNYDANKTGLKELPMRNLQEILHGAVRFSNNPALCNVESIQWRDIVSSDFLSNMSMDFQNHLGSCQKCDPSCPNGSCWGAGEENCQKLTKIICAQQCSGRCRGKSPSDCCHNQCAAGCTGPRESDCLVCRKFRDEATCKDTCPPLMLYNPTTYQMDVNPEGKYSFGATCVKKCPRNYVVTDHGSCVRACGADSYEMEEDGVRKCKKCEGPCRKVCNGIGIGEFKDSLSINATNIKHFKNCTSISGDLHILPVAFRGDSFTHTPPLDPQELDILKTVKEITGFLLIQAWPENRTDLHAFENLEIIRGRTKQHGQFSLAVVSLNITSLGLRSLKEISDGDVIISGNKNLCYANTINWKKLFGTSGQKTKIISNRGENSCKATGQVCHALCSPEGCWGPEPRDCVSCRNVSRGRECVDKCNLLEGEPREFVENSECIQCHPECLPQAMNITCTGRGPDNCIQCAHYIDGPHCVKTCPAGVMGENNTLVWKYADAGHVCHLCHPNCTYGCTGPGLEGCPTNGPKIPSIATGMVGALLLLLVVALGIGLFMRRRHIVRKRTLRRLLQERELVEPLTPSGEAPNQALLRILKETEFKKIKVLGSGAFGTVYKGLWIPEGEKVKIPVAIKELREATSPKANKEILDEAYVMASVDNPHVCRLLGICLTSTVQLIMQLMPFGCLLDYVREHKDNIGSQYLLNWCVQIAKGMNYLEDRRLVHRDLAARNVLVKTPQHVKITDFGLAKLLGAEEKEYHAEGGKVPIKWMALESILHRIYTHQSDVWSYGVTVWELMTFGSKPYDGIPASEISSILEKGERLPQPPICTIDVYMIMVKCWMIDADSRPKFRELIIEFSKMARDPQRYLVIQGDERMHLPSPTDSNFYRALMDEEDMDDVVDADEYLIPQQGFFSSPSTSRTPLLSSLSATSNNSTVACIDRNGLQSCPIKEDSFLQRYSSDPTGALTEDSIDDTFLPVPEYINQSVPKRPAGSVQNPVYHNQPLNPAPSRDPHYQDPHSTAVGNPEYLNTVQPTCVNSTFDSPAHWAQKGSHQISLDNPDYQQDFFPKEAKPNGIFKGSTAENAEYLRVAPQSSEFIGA
T26 sequence (Q9HAZ1 whole entry): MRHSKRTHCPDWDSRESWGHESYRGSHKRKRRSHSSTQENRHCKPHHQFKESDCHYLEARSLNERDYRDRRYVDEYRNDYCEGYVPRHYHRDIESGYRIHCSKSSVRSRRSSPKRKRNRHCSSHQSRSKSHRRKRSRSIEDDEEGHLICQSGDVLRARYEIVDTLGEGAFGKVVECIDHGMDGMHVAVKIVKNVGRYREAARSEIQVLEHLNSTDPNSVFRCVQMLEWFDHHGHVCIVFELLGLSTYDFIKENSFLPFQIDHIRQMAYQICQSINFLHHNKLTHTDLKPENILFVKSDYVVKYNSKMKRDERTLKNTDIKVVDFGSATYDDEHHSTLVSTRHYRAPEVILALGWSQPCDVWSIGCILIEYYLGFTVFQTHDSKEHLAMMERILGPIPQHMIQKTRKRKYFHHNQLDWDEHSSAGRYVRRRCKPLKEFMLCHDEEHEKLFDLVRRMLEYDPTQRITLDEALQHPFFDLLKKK
T28 sequence (P06239 whole entry): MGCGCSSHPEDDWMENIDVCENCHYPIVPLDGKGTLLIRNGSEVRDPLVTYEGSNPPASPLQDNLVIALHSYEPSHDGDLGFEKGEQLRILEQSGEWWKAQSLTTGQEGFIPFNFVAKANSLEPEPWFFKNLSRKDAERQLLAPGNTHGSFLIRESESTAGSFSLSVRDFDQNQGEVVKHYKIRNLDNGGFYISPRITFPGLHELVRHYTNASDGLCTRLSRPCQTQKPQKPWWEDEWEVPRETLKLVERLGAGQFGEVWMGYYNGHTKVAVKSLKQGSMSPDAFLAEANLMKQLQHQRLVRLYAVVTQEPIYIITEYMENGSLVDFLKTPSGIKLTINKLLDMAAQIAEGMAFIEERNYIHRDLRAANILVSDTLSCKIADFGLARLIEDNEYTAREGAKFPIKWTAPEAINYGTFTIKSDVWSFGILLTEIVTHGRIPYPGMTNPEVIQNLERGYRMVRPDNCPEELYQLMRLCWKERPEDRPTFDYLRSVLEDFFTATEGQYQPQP
T9 sequence (Q9UPE1 whole entry): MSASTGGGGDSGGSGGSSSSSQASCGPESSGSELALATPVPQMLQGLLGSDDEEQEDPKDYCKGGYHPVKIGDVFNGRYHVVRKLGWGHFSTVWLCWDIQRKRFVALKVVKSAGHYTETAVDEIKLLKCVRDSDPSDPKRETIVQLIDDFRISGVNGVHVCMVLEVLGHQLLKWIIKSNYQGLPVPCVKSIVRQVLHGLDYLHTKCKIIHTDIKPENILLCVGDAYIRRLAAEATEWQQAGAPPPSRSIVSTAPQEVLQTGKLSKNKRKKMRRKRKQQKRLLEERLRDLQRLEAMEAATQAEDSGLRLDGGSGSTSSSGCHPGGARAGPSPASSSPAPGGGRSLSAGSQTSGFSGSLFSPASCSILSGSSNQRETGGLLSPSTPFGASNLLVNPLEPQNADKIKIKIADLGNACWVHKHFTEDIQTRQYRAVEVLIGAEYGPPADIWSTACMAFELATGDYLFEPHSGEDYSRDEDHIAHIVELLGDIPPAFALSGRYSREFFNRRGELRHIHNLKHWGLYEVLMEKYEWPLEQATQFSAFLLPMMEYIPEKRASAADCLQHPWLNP
T13 sequence (Q8NG66 whole entry): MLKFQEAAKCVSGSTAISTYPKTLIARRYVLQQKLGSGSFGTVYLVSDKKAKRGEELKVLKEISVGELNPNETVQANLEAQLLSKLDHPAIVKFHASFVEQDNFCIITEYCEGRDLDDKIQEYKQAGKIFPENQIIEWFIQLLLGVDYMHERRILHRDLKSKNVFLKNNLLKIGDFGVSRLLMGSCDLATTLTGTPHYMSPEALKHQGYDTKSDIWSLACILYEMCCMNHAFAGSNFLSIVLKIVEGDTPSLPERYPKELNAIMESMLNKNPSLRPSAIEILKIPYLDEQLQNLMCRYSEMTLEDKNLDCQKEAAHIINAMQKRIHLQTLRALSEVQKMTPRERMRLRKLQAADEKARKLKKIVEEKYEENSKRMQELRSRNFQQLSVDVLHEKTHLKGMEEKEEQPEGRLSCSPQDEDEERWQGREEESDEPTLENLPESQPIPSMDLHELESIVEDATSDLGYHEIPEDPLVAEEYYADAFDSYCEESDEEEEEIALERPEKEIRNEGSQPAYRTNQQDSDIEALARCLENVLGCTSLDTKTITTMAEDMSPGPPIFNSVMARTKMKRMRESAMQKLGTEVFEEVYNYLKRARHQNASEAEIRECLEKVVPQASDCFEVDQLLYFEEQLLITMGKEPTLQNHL
T25 sequence (O95382 whole entry): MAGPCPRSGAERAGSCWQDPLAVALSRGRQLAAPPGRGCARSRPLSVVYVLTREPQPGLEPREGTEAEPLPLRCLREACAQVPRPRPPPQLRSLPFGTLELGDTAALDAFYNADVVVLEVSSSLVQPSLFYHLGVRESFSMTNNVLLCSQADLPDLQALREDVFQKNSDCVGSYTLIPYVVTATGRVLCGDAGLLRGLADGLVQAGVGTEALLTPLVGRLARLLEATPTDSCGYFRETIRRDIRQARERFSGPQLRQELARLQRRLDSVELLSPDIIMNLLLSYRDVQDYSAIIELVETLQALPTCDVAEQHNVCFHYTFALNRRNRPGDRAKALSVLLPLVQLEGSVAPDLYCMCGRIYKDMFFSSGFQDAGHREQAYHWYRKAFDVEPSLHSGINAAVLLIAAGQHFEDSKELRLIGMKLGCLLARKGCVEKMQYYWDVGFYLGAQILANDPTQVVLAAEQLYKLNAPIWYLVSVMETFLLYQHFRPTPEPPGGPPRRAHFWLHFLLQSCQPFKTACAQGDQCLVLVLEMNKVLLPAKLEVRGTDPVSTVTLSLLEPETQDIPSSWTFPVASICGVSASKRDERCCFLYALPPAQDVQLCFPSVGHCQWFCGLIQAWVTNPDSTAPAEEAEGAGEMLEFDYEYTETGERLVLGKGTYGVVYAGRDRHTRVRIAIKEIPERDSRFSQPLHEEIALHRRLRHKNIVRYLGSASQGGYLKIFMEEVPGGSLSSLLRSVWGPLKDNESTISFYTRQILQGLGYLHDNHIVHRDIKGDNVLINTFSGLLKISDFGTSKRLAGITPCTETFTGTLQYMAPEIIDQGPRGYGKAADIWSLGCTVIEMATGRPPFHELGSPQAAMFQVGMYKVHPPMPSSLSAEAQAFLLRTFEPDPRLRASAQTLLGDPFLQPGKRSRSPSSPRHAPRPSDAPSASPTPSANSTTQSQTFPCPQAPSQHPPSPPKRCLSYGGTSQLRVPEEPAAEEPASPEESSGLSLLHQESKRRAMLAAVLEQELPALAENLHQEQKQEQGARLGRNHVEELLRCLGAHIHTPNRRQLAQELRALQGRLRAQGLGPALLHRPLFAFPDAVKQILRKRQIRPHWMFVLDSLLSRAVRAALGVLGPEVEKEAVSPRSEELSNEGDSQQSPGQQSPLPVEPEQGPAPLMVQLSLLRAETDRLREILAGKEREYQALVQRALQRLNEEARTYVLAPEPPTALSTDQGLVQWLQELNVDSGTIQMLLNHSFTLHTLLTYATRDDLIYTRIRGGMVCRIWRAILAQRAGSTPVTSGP
T17 sequence (Q14012 whole entry): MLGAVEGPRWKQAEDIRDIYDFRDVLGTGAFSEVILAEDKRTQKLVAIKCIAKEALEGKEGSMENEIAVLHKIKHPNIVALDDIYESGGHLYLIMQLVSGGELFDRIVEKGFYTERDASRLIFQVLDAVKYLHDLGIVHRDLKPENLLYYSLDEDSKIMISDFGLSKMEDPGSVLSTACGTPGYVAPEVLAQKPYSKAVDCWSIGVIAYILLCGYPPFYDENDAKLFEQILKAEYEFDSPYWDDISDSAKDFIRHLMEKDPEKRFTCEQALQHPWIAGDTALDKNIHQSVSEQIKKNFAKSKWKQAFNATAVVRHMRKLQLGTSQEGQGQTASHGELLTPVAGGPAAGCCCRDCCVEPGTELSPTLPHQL

**Q.** How did the remaining binding at 0.1 µM (EPHB2; 100 nM) turn out when `Cc1cc(Nc2ccc(F)c(CC3(C(=O)N4CCC(F)(CN5CCN(c6ccc(N7CCC(=O)NC7=O)cn6)CC5)CC4)CCN(Cc4cccc(Cl)c4F)CC3)n2)n[nH]1` [SK5527] was run?
**A.** 74%

**Q.** What about the remaining binding at 1 µM (EPHB2; 1000 nM) of the same molecule?
**A.** 95%

**Q.** And the remaining binding at 0.1 µM (CDK9; 100 nM)?
**A.** 90%

**Q.** What about the remaining binding at 1 µM (CDK9; 1000 nM) of the same molecule?
**A.** 97%

**Q.** And the remaining binding at 0.1 µM (LZK; 100 nM)?
**A.** 92%

**Q.** And the remaining binding at 1 µM (LZK; 1000 nM)?
**A.** 90%

**Q.** What about the remaining binding at 0.1 µM (MEK4; 100 nM) of the same molecule?
**A.** 94%

**Q.** What about the remaining binding at 1 µM (MEK4; 1000 nM) of the same molecule?
**A.** 73%

**Q.** What about the remaining binding at 0.1 µM (MAPKAPK5; 100 nM) of the same molecule?
**A.** 85%

**Q.** What about the remaining binding at 1 µM (MAPKAPK5; 1000 nM) of the same molecule?
**A.** 74%

**Q.** And the remaining binding at 0.1 µM (TYRO3; 100 nM)?
**A.** 80%

**Q.** What about the remaining binding at 1 µM (TYRO3; 1000 nM) of the same molecule?
**A.** 89%

**Q.** What about the remaining binding at 0.1 µM (ALK; 100 nM) of the same molecule?
**A.** 73%

**Q.** What about the remaining binding at 1 µM (ALK; 1000 nM) of the same molecule?
**A.** 62%

**Q.** And the remaining binding at 0.1 µM (NLK; 100 nM)?
**A.** 94%

**Q.** And the remaining binding at 1 µM (NLK; 1000 nM)?
**A.** 82%

**Q.** What about the remaining binding at 0.1 µM (SRPK3; 100 nM) of the same molecule?
**A.** 100%

**Q.** And the remaining binding at 1 µM (SRPK3; 1000 nM)?
**A.** 97%

**Q.** And the remaining binding at 0.1 µM (DYRK1A; 100 nM)?
**A.** 79%

**Q.** And the remaining binding at 1 µM (DYRK1A; 1000 nM)?
**A.** 80%

**Q.** And the remaining binding at 0.1 µM (CDKL2; 100 nM)?
**A.** 90%

**Q.** What about the remaining binding at 1 µM (CDKL2; 1000 nM) of the same molecule?
**A.** 100%

**Q.** And the remaining binding at 0.1 µM (PRKD1; 100 nM)?
**A.** 100%

**Q.** And the remaining binding at 1 µM (PRKD1; 1000 nM)?
**A.** 100%

**Q.** And the remaining binding at 0.1 µM (NEK11; 100 nM)?
**A.** 100%

**Q.** What about the remaining binding at 1 µM (NEK11; 1000 nM) of the same molecule?
**A.** 100%

**Q.** What about the remaining binding at 0.1 µM (GAK; 100 nM) of the same molecule?
**A.** 88%

**Q.** And the remaining binding at 1 µM (GAK; 1000 nM)?
**A.** 99%

**Q.** And the remaining binding at 0.1 µM (MAP3K15; 100 nM)?
**A.** 100%

**Q.** And the remaining binding at 1 µM (MAP3K15; 1000 nM)?
**A.** 81%

**Q.** And the remaining binding at 0.1 µM (LTK; 100 nM)?
**A.** 100%

**Q.** What about the remaining binding at 1 µM (LTK; 1000 nM) of the same molecule?
**A.** 100%

**Q.** And the remaining binding at 0.1 µM (CAMK1; 100 nM)?
**A.** 100%

**Q.** What about the remaining binding at 1 µM (CAMK1; 1000 nM) of the same molecule?
**A.** 98%

**Q.** What about the remaining binding at 0.1 µM (EGFR(T790M); 100 nM) of the same molecule?
**A.** 92%

**Q.** And the remaining binding at 1 µM (EGFR(T790M); 1000 nM)?
**A.** 91%

**Q.** What about the remaining binding at 0.1 µM (CLK1; 100 nM) of the same molecule?
**A.** 92%

**Q.** What about the remaining binding at 1 µM (CLK1; 1000 nM) of the same molecule?
**A.** 77%

**Q.** What about the remaining binding at 0.1 µM (RIPK5; 100 nM) of the same molecule?
**A.** 97%

**Q.** And the remaining binding at 1 µM (RIPK5; 1000 nM)?
**A.** 81%

**Q.** What about the remaining binding at 0.1 µM (TAK1; 100 nM) of the same molecule?
**A.** 74%

**Q.** What about the remaining binding at 1 µM (TAK1; 1000 nM) of the same molecule?
**A.** 100%

**Q.** What about the remaining binding at 0.1 µM (NDR2; 100 nM) of the same molecule?
**A.** 100%

**Q.** And the remaining binding at 1 µM (NDR2; 1000 nM)?
**A.** 91%

**Q.** What about the remaining binding at 0.1 µM (AKT3; 100 nM) of the same molecule?
**A.** 86%

**Q.** And the remaining binding at 1 µM (AKT3; 1000 nM)?
**A.** 91%

**Q.** What about the remaining binding at 0.1 µM ([1]; 100 nM) of the same molecule?
**A.** 88%

**Q.** What about the remaining binding at 1 µM ([1]; 1000 nM) of the same molecule?
**A.** 62%

**Q.** What about the remaining binding at 0.1 µM (ASK2; 100 nM) of the same molecule?
**A.** 62%

**Q.** And the remaining binding at 1 µM (ASK2; 1000 nM)?
**A.** 56%

**Q.** What about the remaining binding at 0.1 µM (CLK4; 100 nM) of the same molecule?
**A.** 85%

**Q.** And the remaining binding at 1 µM (CLK4; 1000 nM)?
**A.** 100%

**Q.** And the remaining binding at 0.1 µM (CSNK1D; 100 nM)?
**A.** 98%

**Q.** What about the remaining binding at 1 µM (CSNK1D; 1000 nM) of the same molecule?
**A.** 91%

**Q.** What about the remaining binding at 0.1 µM (LCK; 100 nM) of the same molecule?
**A.** 82%

**Q.** And the remaining binding at 1 µM (LCK; 1000 nM)?
**A.** 84%

**Q.** What about the remaining binding at 0.1 µM ([2]; 100 nM) of the same molecule?
**A.** 82%

**Q.** And the remaining binding at 1 µM ([2]; 1000 nM)?
**A.** 93%

**Q.** What about the remaining binding at 0.1 µM (TSSK3; 100 nM) of the same molecule?
**A.** 95%

**Q.** What about the remaining binding at 1 µM (TSSK3; 1000 nM) of the same molecule?
**A.** 99%

**Q.** And the remaining binding at 0.1 µM (PLK4; 100 nM)?
**A.** 76%

**Q.** And the remaining binding at 1 µM (PLK4; 1000 nM)?
**A.** 29%

**Q.** What about the remaining binding at 0.1 µM (PRKCD; 100 nM) of the same molecule?
**A.** 100%

**Q.** And the remaining binding at 1 µM (PRKCD; 1000 nM)?
**A.** 100%

**Q.** What about the remaining binding at 0.1 µM (MEK2; 100 nM) of the same molecule?
**A.** 80%

**Q.** What about the remaining binding at 1 µM (MEK2; 1000 nM) of the same molecule?
**A.** 81%

**Q.** What about the remaining binding at 0.1 µM (MAP4K3; 100 nM) of the same molecule?
**A.** 82%

**Q.** What about the remaining binding at 1 µM (MAP4K3; 1000 nM) of the same molecule?
**A.** 72%
